Laboratory results from US8580763B2, “2, 6-dinitrogen-containing substituted purine derivatives, the preparation and uses thereof” (Zhanggui Wu, priority 2007, dated 2013).

Experiments:
[1] = test system: non-small cell lung cancer; test: anticancer activity in vitro (SRB, MTT), non-small cell lung cancer; type: cell-based; details: action time about 72 h
Procedure: (§1) Antitumor activity tests in vitro and in vivo are carried out to the parital compounds prepared from the above examples. Wherein the method of SRB, MTT is used in vitro, and the action time is about 72 h. Inhibitory effects of the compounds on the growth of mouse Conlon26 cancer are shown in Table 2, inhibitory effects of the compounds on the growth of mouse S180 sarcoma are shown in Table 3.

colon cancer HT-29 = test: anticancer activity in vitro (SRB, MTT), colon cancer HT-29; type: cell-based; details: Homo sapiens, action time about 72 h
Procedure: as §1

[2] = test system: human liver cancer Bel-7402; test: anticancer activity in vitro (SRB, MTT), human liver cancer Bel-7402; type: cell-based; details: action time about 72 h
Procedure: as §1

lymph cancer Ramos = test: anticancer activity in vitro (SRB, MTT), lymph cancer Ramos; type: cell-based; details: Homo sapiens, action time about 72 h
Procedure: as §1

mouse Colon26 cancer = test: inhibitory effects on the growth of mouse Colon26 cancer in vivo; details: Colon26 mice; for Initial body weight: baseline
Procedure: as §1

mouse S180 sarcoma = test: inhibitory effects on the growth of mouse S180 sarcoma in vivo; details: S180 mice; for Initial body weight: baseline
Procedure: as §1

[3] = test system: four different cancer cells; test: antitumor activity in vitro, summary over the four cancer cells of Table 1; type: cell-based; details: summary of Table 1
Procedure: as §1
Compared with compound I, compound XX has better antitumor effects.

`c1cc(Nc2nc(NC3CC3)c3nc[nH]c3n2)ccn1` [Compound XXIX] showed an IC50 [1] of 7.55 µM, an IC50 (colon cancer HT-29) of 16.8 µM and an IC50 [2] of 4.89 µM. For the same compound, the IC50 (lymph cancer Ramos) was 4.14 µM.

With `CN1CCN(c2nc(Nc3ccc4ncccc4c3)nc3[nH]cnc23)CC1` [Compound XII] the End body weight (mouse Colon26 cancer; 100 mg/kg p.o.) was 19.16 g, the Inhibition rate (mouse Colon26 cancer; 100 mg/kg p.o.) was 35.18% and the “Tumor removed body weight” value (mouse Colon26 cancer; 100 mg/kg p.o.) was 17.98 g. The Tumor weight (mouse Colon26 cancer; 100 mg/kg p.o.) was 1.19 g, the Initial body weight (mouse Colon26 cancer; 100 mg/kg p.o.) was 19.06 g and the End body weight (mouse Colon26 cancer; 150 mg/kg p.o.) was 18.28 g. For the same compound, the Inhibition rate (mouse Colon26 cancer; 150 mg/kg p.o.) was 50.16%, the “Tumor removed body weight” value (mouse Colon26 cancer; 150 mg/kg p.o.) was 17.36 g and the Tumor weight (mouse Colon26 cancer; 150 mg/kg p.o.) was 0.91 g. For the same compound, the Initial body weight (mouse Colon26 cancer; 150 mg/kg p.o.) was 19.16 g, the End body weight (mouse S180 sarcoma; 100 mg/kg p.o.) was 22.58 g and the Inhibition rate (mouse S180 sarcoma; 100 mg/kg p.o.) was 28.19%. The “Tumor removed body weight” value (mouse S180 sarcoma; 100 mg/kg p.o.) was 20.94 g, the Tumor weight (mouse S180 sarcoma; 100 mg/kg p.o.) was 1.63 g and the Initial body weight (mouse S180 sarcoma; 100 mg/kg p.o.) was 19.22 g. The End body weight (mouse S180 sarcoma; 200 mg/kg p.o.) was 21.35 g, the Inhibition rate (mouse S180 sarcoma; 200 mg/kg p.o.) was 46.96% and the “Tumor removed body weight” value (mouse S180 sarcoma; 200 mg/kg p.o.) was 20.14 g. For the same compound, the Tumor weight (mouse S180 sarcoma; 200 mg/kg p.o.) was 1.21 g and the Initial body weight (mouse S180 sarcoma; 200 mg/kg p.o.) was 19.46 g.

Work on `CCN1CCN(c2nc(Nc3ccc4ncccc4c3)nc3[nH]cnc23)CC1` [Compound XV] yielded an IC50 [1] of 3.36 µM, an IC50 (colon cancer HT-29) of 4.27 µM and an IC50 [2] of 5.46 µM. For the same compound, the IC50 (lymph cancer Ramos) was 2.87 µM and the “antitumor activity to four different cancer cells (in words)” value [3] was “higher antitumor activity”.

In the case of `c1cnc2ccc(Nc3nc(N4CCCCC4)c4nc[nH]c4n3)cc2c1` [Compound XIV], the IC50 [1] is reported as 1.33 µM, the IC50 (colon cancer HT-29) is reported as 2.22 µM and the IC50 [2] is reported as 4.62 µM. For the same compound, the IC50 (lymph cancer Ramos) was 2.93 µM and the “antitumor activity to four different cancer cells (in words)” value [3] was “higher antitumor activity”.

Compound `C=CCN(CC=C)c1nc(Nc2ccc3ncccc3c2)nc2[nH]cnc12` [Compound XIII] has an IC50 [1] of 1.71 µM, an IC50 (colon cancer HT-29) of 1.94 µM and an IC50 [2] of 3.46 µM. The IC50 (lymph cancer Ramos) was 3.01 µM and the “antitumor activity to four different cancer cells (in words)” value [3] was “higher antitumor activity”.

In the case of `O=P1(N(CCCl)CCCl)NCCCO1` (stereo not shown) [CTX, cyclophosphamide, reference compound], the End body weight (mouse Colon26 cancer; 30 mg/kg i.p.) is reported as 20.33 g, the Inhibition rate (mouse Colon26 cancer; 30 mg/kg i.p.) is reported as 78.14% and the “Tumor removed body weight” value (mouse Colon26 cancer; 30 mg/kg i.p.) is reported as 19.93 g. For the same compound, the Tumor weight (mouse Colon26 cancer; 30 mg/kg i.p.) was 0.40 g, the Initial body weight (mouse Colon26 cancer; 30 mg/kg i.p.) was 20.03 g and the End body weight (mouse S180 sarcoma; 30 mg/kg i.p.) was 20.31 g. For the same compound, the Inhibition rate (mouse S180 sarcoma; 30 mg/kg i.p.) was 79.82%, the “Tumor removed body weight” value (mouse S180 sarcoma; 30 mg/kg i.p.) was 19.85 g and the Tumor weight (mouse S180 sarcoma; 30 mg/kg i.p.) was 0.46 g. For the same compound, the Initial body weight (mouse S180 sarcoma; 30 mg/kg i.p.) was 19.65 g.

In the case of `Cc1cc(Nc2nc(NC3CC3)c3nc[nH]c3n2)c2ccccc2n1` [Compound XXV], the IC50 [1] is reported as 13.8 µM, the IC50 (colon cancer HT-29) is reported as 2.25 µM and the IC50 [2] is reported as 5.28 µM. For the same compound, the IC50 (lymph cancer Ramos) was 5.28 µM.

In the case of `CC(CO)Nc1nc(Nc2ccc3ncccc3c2)nc2[nH]cnc12` (stereo not shown) [Compound X], the IC50 [1] is reported as 12.5 µM, the IC50 (colon cancer HT-29) is reported as 24.2 µM and the IC50 [2] is reported as 1.78 µM. For the same compound, the IC50 (lymph cancer Ramos) was 4.96 µM.

`FC(F)(F)c1cc(Nc2nc(NC3CC3)c3nc[nH]c3n2)cc2cccnc12` [Compound XXIV] showed an IC50 [1] of 11.7 µM, an IC50 (colon cancer HT-29) greater than 100 µM and an IC50 [2] greater than 100 µM. For the same compound, the IC50 (lymph cancer Ramos) was greater than 100 µM.
